According to patent publication US20220202964A1, “HEPARANASE COMPOUNDS AND METHODS OF USE” (University of Florida Research Foundation, Incorporated, priority 2019, published 2022):
Values joined by “and” are separate entries in the source; they are usually repeats but may differ in a detail not shown here. Equal values may be shown once.

What was measured:
heparanase [1] = target: T1, heparanase (Homo sapiens, UniProt Q9Y251); experiment: HPLC analysis of compounds 1-4 with heparanase; format: biochemical; conditions: 5 μM, heparanase 1 μg, 4 hours, 37° C., NaOAc pH 5.0
T1 sequence (Q9Y251 36-543): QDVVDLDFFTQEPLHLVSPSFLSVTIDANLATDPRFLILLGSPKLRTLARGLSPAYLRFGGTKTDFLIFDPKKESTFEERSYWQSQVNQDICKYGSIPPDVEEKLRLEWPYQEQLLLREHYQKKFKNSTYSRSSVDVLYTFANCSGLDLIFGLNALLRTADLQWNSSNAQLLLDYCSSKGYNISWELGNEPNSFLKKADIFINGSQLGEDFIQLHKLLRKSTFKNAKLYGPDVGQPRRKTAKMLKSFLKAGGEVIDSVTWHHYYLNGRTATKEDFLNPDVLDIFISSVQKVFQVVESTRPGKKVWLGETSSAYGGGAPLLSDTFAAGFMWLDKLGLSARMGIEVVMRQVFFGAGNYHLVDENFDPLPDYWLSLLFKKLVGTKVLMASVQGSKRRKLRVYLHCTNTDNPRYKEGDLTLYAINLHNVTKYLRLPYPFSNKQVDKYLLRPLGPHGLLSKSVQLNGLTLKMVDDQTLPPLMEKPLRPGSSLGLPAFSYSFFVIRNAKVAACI
Method: Heparanase (1 μg, 20 μL) was added to the compounds 1-4 solution (180 μL, 5 μM) in 40 mM NaOAc buffer (pH 5.0) and the mixture was incubated for 4 hours at 37° C. The resulting mixtures were injected into HPLC for analysis. HPLC analysis was performed under the following conditions—mobile phase A: water with 0.1% TFA; B: acetonitrile with 0.1% TFA; 0-20 min: gradient elution, 25-95% B. The trace was monitored by DAD detector at 315 nm.

[2] = Fluorescence response to biological oxidizing and reducing species; conditions: 5 μM; 100 μM H2O2, 5 mM GSH and Cys; 4 h, 37° C.
Method: (§1) 5 μM compound 1 (HADP) was incubated with various biological species at the indicated amount/concentration in 96-well microplate. Cysteine (5 mM), Glutathione (5 mM), H2O2 (100 μM), Esterase, Chondroitinase ABC, Hyaluronidase, Lysozyme, β-Glucuronidase, β-Glucosidase (5 μg each) and heparanase (2 μg). For Chondroitinase ABC and Hyaluronidase, 50 μg was also tested. Each sample was performed in triplicates. Then the microplate was sealed with sealing film and incubated at 37° C. for 4 hours. Fluorescence intensity was recorded on Spectramax M5 Multimode plate reader (Molecular Devices, USA). λex/em=365 nm/455 nm.

β-Glucuronidase = target: T2, β-Glucuronidase (Homo sapiens, UniProt P08236); experiment: Fluorescence response to biological species: β-glucuronidase; format: biochemical; conditions: 5 μM; β-glucuronidase 5 μg; 4 h, 37° C.
T2 sequence (P08236 23-651): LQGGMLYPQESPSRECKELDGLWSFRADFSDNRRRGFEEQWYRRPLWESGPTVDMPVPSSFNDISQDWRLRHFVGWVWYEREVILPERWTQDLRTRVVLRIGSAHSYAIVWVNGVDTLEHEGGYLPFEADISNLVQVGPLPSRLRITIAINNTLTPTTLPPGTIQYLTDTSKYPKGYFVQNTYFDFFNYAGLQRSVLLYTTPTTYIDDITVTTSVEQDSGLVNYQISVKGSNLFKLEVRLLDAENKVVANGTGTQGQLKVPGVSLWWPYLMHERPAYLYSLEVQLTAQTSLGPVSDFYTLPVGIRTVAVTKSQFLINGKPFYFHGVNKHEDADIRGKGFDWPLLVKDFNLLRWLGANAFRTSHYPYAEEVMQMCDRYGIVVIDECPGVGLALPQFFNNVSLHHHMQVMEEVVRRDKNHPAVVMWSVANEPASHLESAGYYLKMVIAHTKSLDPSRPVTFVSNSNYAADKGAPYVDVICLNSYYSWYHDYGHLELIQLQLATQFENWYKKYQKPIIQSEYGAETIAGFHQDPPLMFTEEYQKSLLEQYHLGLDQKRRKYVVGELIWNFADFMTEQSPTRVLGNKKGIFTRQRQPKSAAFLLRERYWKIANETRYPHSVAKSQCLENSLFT
Method: as §1

[3] = Selectivity toward heparanase against interfering biological molecules and enzymes; format: biochemical
Method: as §1

heparanase [4] = target: T1, heparanase; experiment: Kinetics and detection limit of heparanase by Compound 1 (HADP); format: biochemical
Method: To a solution of 20 μL, of 50 μM HADP (compound 1) and 160 μL 40 mM NaOAc buffer (pH 5.0) buffers was added 20 μL, heparanase with various concentrations (0-0.1 μg/μL) in 96-well microplate. Then final concentration of heparanase is from 0-0.01 μg/μL. Each concentration was performed in triplicates. Then the fluorescence intensity was recorded on Spectramax M5 Multimode plate reader (Molecular Devices, USA) at each timepoint. λex/em=365 nm/455 nm.
To calculate the detection limit, plot the fluorescence intensity against heparanase concentration and fit a line with linear regression. The detection limit was estimated with the following formula. LOD=3 σ/s, where σ represents standard deviation of fluorescent intensity of blank sample, s is the calculated slope of linear regression equation.
To determine the detection limit of Compound 1 (HADP) probe for heparanse, concentration-dependent studies with various concentrations of heparanse over time were performed with 5 μM 1 (HADP). The concentration increases of heparanse led to higher fluorescent intensities at the same time point due to the expedited cleavage of glyosidic bond, releasing more fluorophores. A good linear relationship was obtained in the heparanse concentration range of 0-0.01 μgμl-1 with an equation of F455 nm=650443[HPA]+12.03 (R^2=0.9968). Based on 3σ/s method, the limit of detection (LOD) of Compound 1 for heparanse was calculated to be 0.35 ng/mL (67 pM), indicating the ultra-sensitivity of Compound 1 (HADP) to detect heparanase activity. The kinetic parameters for the enzymatic cleavage of Compound 1 (HADP) were determined via time-dependent fluorescence intensity in the presence of heparanase and probe 1 (HADP) at different concentration.

Cc1cc(=O)oc2c(F)c(O[C@@H]3O[C@H](C(=O)O)[C@@H](O[C@H]4O[C@H](CO)[C@@H](O)[C@H](O)[C@H]4NS(=O)(=O)O)[C@H](O)[C@H]3O)c(F)cc12 [Compound 1]
cleavage by heparanase (HPLC trace) (heparanase [1]): clean conversion
fluorescence change [2]: No fluorescence change
fluorescence response (β-Glucuronidase): did not trigger fluorescence response
selectivity for heparanase over other competitive analytes [3]: excellent selectivity
fluorescence increase upon addition of other molecules and enzymes ([3]; 5 μM, superphysiological levels, 4 h, 37° C.): no fluorescence increase
limit of detection (LOD) for heparanase (heparanase [4]; 5 μM probe, 3σ/s method): 0.35 ng/mL and 67 pM
turnover number (kcat) (heparanase [4]; enzymatic cleavage by heparanase): 0.04 s⁻¹
Km (heparanase [4]; enzymatic cleavage by heparanase, read-out: Michaelis constant (Km)): 8.3 µM
